The text below walks through data of ChEMBL document CHEMBL1159196, “Lignans interfering with 5 alpha-dihydrotestosterone binding to human sex hormone-binding globulin” (J Nat Prod, 1998).

The target in assay [1] is T1, Sex hormone-binding globulin (Homo sapiens) (UniProt P04278).
T1 sequence (whole entry): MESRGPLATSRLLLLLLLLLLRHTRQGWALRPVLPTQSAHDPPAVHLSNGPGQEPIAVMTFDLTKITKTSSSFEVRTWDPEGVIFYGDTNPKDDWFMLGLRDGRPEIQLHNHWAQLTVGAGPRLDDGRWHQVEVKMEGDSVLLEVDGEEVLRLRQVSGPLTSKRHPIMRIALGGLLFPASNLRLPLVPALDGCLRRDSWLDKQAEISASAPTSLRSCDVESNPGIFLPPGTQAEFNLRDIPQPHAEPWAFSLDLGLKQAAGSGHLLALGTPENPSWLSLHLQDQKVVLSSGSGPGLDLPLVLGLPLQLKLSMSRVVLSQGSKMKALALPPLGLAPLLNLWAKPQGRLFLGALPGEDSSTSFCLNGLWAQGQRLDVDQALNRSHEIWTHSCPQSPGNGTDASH
Put plainly: Binding affinity to human serum SHBG at 4 degC by competitive inhibition assay.

Assay [2] has as its target T1, Sex hormone-binding globulin (Homo sapiens). Put plainly: Binding affinity to SHBG at 4 degC.
Assay [3] has the same target. Kind of assay: Binding affinity to SHBG.
For assay [4], the target named is T2, Sex hormone-binding globulin (Homo sapiens, UniProt P04278).
T2 sequence (P04278 whole entry): T1 sequence (whole entry)
Kind of assay: Displacement of [3H]DHT from human serum SHBG.

As to `COc1cc(C[C@H]2COC[C@@H]2Cc2ccc(O)c(OC)c2)ccc1O`, the Ka in assay [1] is 3.2 ×10⁶ /M; in assay [2], 0.98 ×10⁹ /M.
In assay [3], `C[C@]12CC[C@@H]3c4ccc(O)cc4CC[C@H]3[C@@H]1CC[C@@H]2O` had a Ka of 5 ×10⁸ /M.
On the same count and under the same terms, as for `C[C@]12CCC(=O)C[C@@H]1CC[C@@H]1[C@@H]2CC[C@]2(C)[C@@H](O)CC[C@@H]12`, the figure is 2 ×10⁹ /M.
In turn, `O=C1OCC(Cc2cccc(O)c2)C1Cc1cccc(O)c1` (racemic) registered an IC50 in assay [4] of 620 µM.
As for `C[C@]12CC[C@H]3[C@@H](CCC4=CC(=O)CC[C@@]43C)[C@@H]1CC[C@@H]2O`, in assay [3], the Ka is 1 ×10⁹ /M.
Regarding `COc1cc(C[C@H]2COC(=O)[C@@H]2Cc2ccc(O)c(OC)c2)ccc1O` [MATAIRESINOL], the IC50 in assay [4] is 52 µM. This lies in the double-digit micromolar range.
The same measure, in the same setting: the same measure for `COc1cc(C[C@@H](CO)[C@H](CO)Cc2ccc(O)c(OC)c2)ccc1O` [(+)-SECOISOLARICIRESINOL]: 230 µM.
